Reference: patent US7348425B2, “Inhibitors of HCV replication” (Bristol-Myers Squibb Company, priority 2004, dated 2008)

Molecular target: T1, HCV NS5B RdRp genotype 1b (Hepatitis C virus genotype 1b, UniProt Q9WMX2)
T1 construct: The protein was expressed with an 18 amino acid C-terminal truncation to enhance the solubility; made in house; host or cells: E. coli BL21 (DE3), pET21a
Experiment: Modified HCV NS5B RdRp enzyme assay (with preincubation)
Format: biochemical
Conditions: modified method (with preincubation)
Experimental: HCVNS5B RdRp cloning, expression, and purification. The cDNA encoding the NS5B protein of HCV, genotype 1b, was cloned into the pET21a expression vector. The protein was expressed with an 18 amino acid C-terminal truncation to enhance the solubility. The E. coli competent cell line BL21 (DE3) was used for expression of the protein. Cultures were grown at 37° C. for ˜4 hours until the cultures reached an optical density of 2.0 at 600 nm. The cultures were cooled to 20° C. and induced with 1 mM IPTG. Fresh ampicillin was added to a final concentration of 50 μg/ml and the cells were grown overnight at 20° C.
Cell pellets (3 L) were lysed for purification to yield 15-24 mgs of purified NS5B. The lysis buffer consisted of 20 mM Tris-HCl, pH 7.4, 500 mM NaCl, 0.5% triton X-100, 1 mM DTT, 1 mM EDTA, 20% glycerol, 0.5 mg/ml lysozyme, 10 mM MgCl2, 15 ug/ml deoxyribonuclease I, and Complete TM protease inhibitor tablets (Roche). After addition of the lysis buffer, frozen cell pellets were resuspended using a tissue homogenizer. To reduce the viscosity of the sample, aliquots of the lysate were sonicated on ice using a microtip attached to a Branson sonicator. The sonicated lysate was centrifuged at 100,000×g for 1 hr at 4° C. and filtered through a 0.2 μm filter unit (Corning).
The protein was purified using three sequential chromatography steps: Heparin sepharose CL-6B, polyU sepharose 4B, and Hitrap SP sepharose (Pharmacia). The chromatography buffers were identical to the lysis buffer but contained no lysozyme, deoxyribonuclease I, MgCl2 or protease inhibitor and the NaCl concentration of the buffer was adjusted according to the requirements for charging the protein onto the column. Each column was eluted with a NaCl gradient which varied in length from 5-50 column volumes depending on the column type. After the final chromatography step, the resulting purity of the enzyme is >90% based on SDS-PAGE analysis. The enzyme was aliquoted and stored at −80° C.
Standard HCV NS5B RdRp enzyme assay. HCV RdRp genotype Ib assays were run in a final volume of 60 μl in 96 well plates (Costar 3912). The assay buffer is composed of 20 mM Hepes, pH 7.5, 2.5 mM KCl, 2.5 mM MgCl2, 1 mM DTT, 1.6 U RNAse inhibitor (Promega N2515), 0.1 mg/ml BSA (Promega R3961), and 2% glycerol. All compounds were serially diluted (3-fold) in DMSO and diluted further in water such that the final concentration of DMSO in the assay was 2%. HCV RdRp genotype 1b enzyme was used at a final concentration of 28 nM. A polyA template was used at 6 nM, and a biotinylated oligo-dT12 primer was used at 180 nM final concentration. Template was obtained commercially (Amersham 27-4110). Biotinylated primer was prepared by Sigma Genosys. ^3H-UTP was used at 0.6 μCi (0.29 μM total UTP). Reactions were initiated by the addition of enzyme, incubated at 30° C. for 60 min, and stopped by adding 25 μl of 50 mM EDTA containing SPA beads (4 μg/μl, Amersham RPNQ 0007). Plates were read on a Packard Top Count NXT after >1 hr incubation at room temperature.
Modified HCV NS5B RdRp enzyme assay. A modified enzyme assay was performed essentially as described for the standard enzyme assay except for the following: The biotinylated oligo dT12 primer was precaptured on streptavidin-coated SPA beads by mixing primer and beads in assay buffer and incubating at room temperature for one hour. Unbound primer was removed after centrifugation. The primer-bound beads were resuspended in 20 mM Hepes buffer, pH 7.5 and used in the assay at final concentrations of 20 nM primer and 0.67 μg/μl beads. Order of addition in the assay: enzyme (14 nM) was added to diluted compound followed by the addition of a mixture of template (0.2 nM), ^3H-UTP (0.6 μCi, 0.29 μM), and primer-bound beads, to initiate the reaction; concentrations given are final. Reactions were allowed to proceed for 4 hours at 30° C.
The IC50 values for compounds were determined using seven different [I]. […]

T1 sequence (Q9WMX2 2420-2992): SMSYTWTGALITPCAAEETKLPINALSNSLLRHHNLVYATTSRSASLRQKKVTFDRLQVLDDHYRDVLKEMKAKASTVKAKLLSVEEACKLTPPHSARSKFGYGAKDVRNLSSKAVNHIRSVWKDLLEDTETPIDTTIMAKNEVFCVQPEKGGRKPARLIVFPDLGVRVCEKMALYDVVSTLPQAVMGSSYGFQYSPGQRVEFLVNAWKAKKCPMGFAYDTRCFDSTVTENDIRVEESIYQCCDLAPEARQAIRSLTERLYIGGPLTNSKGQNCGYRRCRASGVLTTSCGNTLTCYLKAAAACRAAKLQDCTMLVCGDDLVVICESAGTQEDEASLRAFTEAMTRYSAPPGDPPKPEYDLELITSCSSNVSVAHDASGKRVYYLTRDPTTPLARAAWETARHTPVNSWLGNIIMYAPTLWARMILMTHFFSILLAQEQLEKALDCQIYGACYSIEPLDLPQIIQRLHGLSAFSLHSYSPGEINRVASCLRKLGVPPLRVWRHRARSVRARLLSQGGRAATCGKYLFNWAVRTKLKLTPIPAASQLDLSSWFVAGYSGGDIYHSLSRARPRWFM

First: COC(=O)c1ccc2c(C3CCCCC3)c3n(c2c1)CC(C(=O)O)=Cc1ccc(Cl)cc1-3
Second: COC(=O)c1ccc2c(C3CCCCC3)c3n(c2c1)CC(C(=O)O)=Cc1ccccc1-3
The IC50 of the first is higher: > 1000 nM for the first, 20 to 1000 nM for the second.

`O=C(O)c1ccc2c(C3CCCCC3)c3n(c2c1)C[C@@H](O)[C@@H](O)c1ncccc1-3` and `NC(=O)c1ccc2c(C3CCCCC3)c3n(c2c1)CCCc1ncccc1-3` fall in the same range of IC50: 20 to 1000 nM for the first, 20 to 1000 nM for the second.

`O=C(O)c1ccc2c(C3CCCCC3)c3c4ccccc4ncn3c2c1` and `COC(=O)c1ccc2c(C3CCCCC3)c3n(c2c1)CC(C(=O)N(C)C)=Cc1ccccc1-3` cannot be ordered by IC50: > 1000 nM for the first, > 1000 nM for the second.

`O=C(NS(=O)(=O)N1CCCC1)c1ccc2c(C3CCCCC3)c3n(c2c1)CC(C(=O)N1CCOCC1)=Cc1ccccc1-3` and `O=C(O)c1ccc2c(C3CCCCC3)c3n(c2c1)CC(C(=O)N1CCOCC1)=Cc1ccc(Cl)cc1-3` fall in the same range of IC50: 20 to 1000 nM for the first, 20 to 1000 nM for the second.

Compared with `O=C(NC1(C(=O)OCc2ccccc2)CCCC1)c1ccc2c(C3CCCCC3)c3n(c2c1)CCCc1cc(O)ccc1-3`, `O=C(O)/C=C/c1ccc(NC(=O)C2(NC(=O)c3ccc4c(C5CCCCC5)c5n(c4c3)CCCc3cc(O)ccc3-5)CCCC2)cc1` is lower in IC50: > 1000 nM for the first, 20 to 1000 nM for the second. The second is the more potent here.

`CCS(=O)(=O)NC(=O)c1ccc2c(C3CCCCC3)c3n(c2c1)CC(C(=O)N1CCOCC1)Cc1ccccc1-3` (centres unmarked) and `CN(C)S(=O)(=O)NC(=O)c1ccc2c(C3CCCCC3)c3n(c2c1)C[C@H](C(=O)N1CCC(N2CCCC2)CC1)Cc1ccccc1-3` fall in the same range of IC50: 20 to 1000 nM for the first, 20 to 1000 nM for the second.

First: CCOC(=O)N1CCn2c(c(C3CCCCC3)c3ccc(C(=O)NS(=O)(=O)C4CC4)cc32)-c2ccccc21
Second: COC(=O)c1ccc2c(C3CCCCC3)c3n(c2c1)CC(C(=O)N1C[C@@H](C)O[C@@H](C)C1)=Cc1ccccc1-3
The IC50 of the first is lower: 20 to 1000 nM for the first, > 1000 nM for the second. The first is the more potent here.

`COC(=O)/C=C/c1ccc(NC(=O)C2(NC(=O)c3ccc4c(C5CCCCC5)c5n(c4c3)CC(=O)Nc3cccnc3-5)CCCC2)cc1` [drawing 159] and `NC(=O)C1Cc2ccccc2-c2c(C3CCCCC3)c3ccc(C(=O)NC4(C(=O)Nc5ccc(/C=C/C(=O)O)cc5)CCCC4)cc3n2C1` (centres unmarked) fall in the same range of IC50: 20 to 1000 nM for the first, 20 to 1000 nM for the second.

System: HCV replicon
Experiment: HCV replicon FRET assay
Format: cell-based
Conditions: Hepatitis C virus; FRET assay; read-out: EC50
Experimental: The IC50 values for compounds were determined using seven different [I]. IC50 values were calculated from the inhibition using the formula y=A+((B−A)/(1+((C/x)^D))). FRET Assay Preparation. To perform the HCV FRET screening assay, 96-well cell culture plates were used. The FRET peptide (Anaspec, Inc.) (Taliani et al., Anal. Biochem. 240:60-67 (1996), hereby incorporated by reference in its entirety) contains a fluorescence donor, EDANS, near one end of the peptide and an acceptor, DABCYL, near the other end. The fluorescence of the peptide is quenched by […] resonance energy transfer (RET) between the donor and the acceptor, but as the NS3 protease cleaves the peptide the products are released from RET quenching and the fluorescence of the donor becomes apparent. The assay reagent was made as follows: 5× cell Luciferase cell culture lysis reagent from Promega (#E153A) diluted to 1× with dH2O, NaCl added to 150 mM final, the FRET peptide diluted to 20 uM final from a 2 mM stock.
To prepare plates, HCV replicon cells, with or without a Renilla luciferase reporter gene, were trypsinized and placed into each well of a 96-well plate with titrated test compounds added in columns 3 through 12; columns 1 and 2 contained a control compound (HCV protease inhibitor), and the bottom row contained cells without compound. The plates were then placed in a CO2 incubator at 37 degrees C.
Assays. Subsequent to addition of the test compounds described above (FRET Assay Preparation), at various times the plate was removed and Alamar blue solution (Trek Diagnostics, #00-100) was added per well as a measure of cellular toxicity. After reading in a Cytoflour 4000 instrument (PE Biosystems), plates were rinsed with PBS and then used for FRET assay by the addition of 30 ul of the FRET peptide assay reagent described above (FRET Assay Preparation) per well. The plate was then placed into the Cytoflour 4000 instrument which had been set to 340 excite/490 emission, automatic mode for 20 cycles and the plate read in a kinetic mode. Typically, the signal to noise using an endpoint analysis after the reads was at least three-fold. Alternatively, after Alamar blue reading, plates were rinsed with PBS, 50 ul of DMEM (high glucose) without phenol red was added and plates were then used for luciferase assay using the Promega Dual-Glo Luciferase Assay System.
Compound analysis was determined by quantification of the relative HCV replicon inhibition and the relative cytotoxicity values. To calculate cytoxicity values, the average Alamar Blue fluorescence signals from the control wells were set as 100% non-toxic. The individual signals in each of the compound test wells were then divided by the average control signal and multiplied by 100% to determine […]. To calculate the HCV replicon inhibition values, an average background value was obtained from the two wells containing the highest amount of HCV protease inhibitor at the end of the assay period. These numbers were similar to those obtained from naïve Huh-7 cells.
The background numbers were then subtracted from the average signal obtained from the control wells and this number was used as 100% activity. The individual signals in each of the compound test wells were then divided by the averaged control values after background subtraction and multiplied by 100% to determine percent activity. EC50 values for a protease inhibitor titration were calculated as the concentration which caused a 50% reduction in FRET or luciferase activity. The two numbers generated for the compound plate, percent cytoxicity and percent activity were used to determine compounds of interest for further analysis.

First: COC(=O)c1ccc2c(C3CCCCC3)c3n(c2c1)CC(C(=O)O)=Cc1ccc(Cl)cc1-3
Second: COC(=O)c1ccc2c(C3CCCCC3)c3n(c2c1)CC(C(=O)O)=Cc1ccccc1-3
The EC50 of the first is higher: 1000 to 10000 nM for the first, 10 to 1000 nM for the second.

`O=C(O)c1ccc2c(C3CCCCC3)c3n(c2c1)C[C@@H](O)[C@@H](O)c1ncccc1-3` and `NC(=O)c1ccc2c(C3CCCCC3)c3n(c2c1)CCCc1ncccc1-3` fall in the same range of EC50: 1000 to 10000 nM for the first, 1000 to 10000 nM for the second.

First: O=C(O)c1ccc2c(C3CCCCC3)c3c4ccccc4ncn3c2c1
Second: COC(=O)c1ccc2c(C3CCCCC3)c3n(c2c1)CC(C(=O)N(C)C)=Cc1ccccc1-3
The EC50 of the first is higher: > 10000 nM for the first, 1000 to 10000 nM for the second. The second is the more potent here.

First: O=C(NS(=O)(=O)N1CCCC1)c1ccc2c(C3CCCCC3)c3n(c2c1)CC(C(=O)N1CCOCC1)=Cc1ccccc1-3
Second: O=C(O)c1ccc2c(C3CCCCC3)c3n(c2c1)CC(C(=O)N1CCOCC1)=Cc1ccc(Cl)cc1-3
The EC50 of the first is lower: 10 to 1000 nM for the first, 1000 to 10000 nM for the second. The first is the more potent here.

First: O=C(NC1(C(=O)OCc2ccccc2)CCCC1)c1ccc2c(C3CCCCC3)c3n(c2c1)CCCc1cc(O)ccc1-3
Second: O=C(O)/C=C/c1ccc(NC(=O)C2(NC(=O)c3ccc4c(C5CCCCC5)c5n(c4c3)CCCc3cc(O)ccc3-5)CCCC2)cc1
The EC50 of the first is higher: 1000 to 10000 nM for the first, 10 to 1000 nM for the second.

`CCS(=O)(=O)NC(=O)c1ccc2c(C3CCCCC3)c3n(c2c1)CC(C(=O)N1CCOCC1)Cc1ccccc1-3` (centres unmarked) and `CN(C)S(=O)(=O)NC(=O)c1ccc2c(C3CCCCC3)c3n(c2c1)C[C@H](C(=O)N1CCC(N2CCCC2)CC1)Cc1ccccc1-3` fall in the same range of EC50: 10 to 1000 nM for the first, 10 to 1000 nM for the second.

First: CCOC(=O)N1CCn2c(c(C3CCCCC3)c3ccc(C(=O)NS(=O)(=O)C4CC4)cc32)-c2ccccc21
Second: COC(=O)c1ccc2c(C3CCCCC3)c3n(c2c1)CC(C(=O)N1C[C@@H](C)O[C@@H](C)C1)=Cc1ccccc1-3
The EC50 of the first is lower: 10 to 1000 nM for the first, 1000 to 10000 nM for the second.

`COC(=O)/C=C/c1ccc(NC(=O)C2(NC(=O)c3ccc4c(C5CCCCC5)c5n(c4c3)CC(=O)Nc3cccnc3-5)CCCC2)cc1` [drawing 159] and `NC(=O)C1Cc2ccccc2-c2c(C3CCCCC3)c3ccc(C(=O)NC4(C(=O)Nc5ccc(/C=C/C(=O)O)cc5)CCCC4)cc3n2C1` (centres unmarked) cannot be ordered by EC50: < 100 nM for the first, 10 to 1000 nM for the second.
